# Laboratory results from ChEMBL document CHEMBL3769380, “New Synthetic Routes to Triazolo-benzodiazepine Analogues: Expanding the Scope of the Bump-and-Hole Approach for Selective Bromo and Extra-Terminal (BET) Bromodomain Inhibition” (J Med Chem, 2016).
# Assays:
# [1] = molecular target: T1, Bromodomain-containing protein 2 (Homo sapiens, UniProt P25440); experiment: Binding affinity to recombinant poly-His-tagged BRD2 bromodomain 2 (unknown origin) by isothermal titration calorimetry
# [2] = molecular target: T1, Bromodomain-containing protein 2; experiment: Binding affinity to recombinant poly-His-tagged BRD2 bromodomain 1 (unknown origin) by isothermal titration calorimetry
# DH5-alpha [3] = experiment: Selectivity ratio of Kd for N-terminal His6-tagged BRD2 bromodomain 1 (unknown origin) expressed in competent Escherichia coli BL21(DE3) cells to Kd for BRD2 bromodomain 1 L110A mutant (unknown origin) expressed in competent Escherichia coli DH5-alpha cells; settings: Homo sapiens
# DH5-alpha [4] = experiment: Selectivity ratio for BRD2 bromodomain 1 L110A mutant (unknown origin) expressed in competent Escherichia coli DH5-alpha cells over N-terminal His6-tagged BRD2 bromodomain 1 (unknown origin) expressed in competent Escherichia coli BL21(DE3) cells by differential scanning fluorimetry; settings: Homo sapiens
# DH5-alpha [5] = experiment: Selectivity ratio of Kd for N-terminal His6-tagged BRD2 bromodomain 2 (unknown origin) expressed in competent Escherichia coli BL21(DE3) cells to Kd for BRD2 bromodomain 2 L383A mutant (unknown origin) expressed in competent Escherichia coli DH5-alpha cells; settings: Homo sapiens
# DH5-alpha [6] = experiment: Selectivity ratio for BRD2 bromodomain 2 L383A mutant (unknown origin) expressed in competent Escherichia coli DH5-alpha cells over N-terminal His6-tagged BRD2 bromodomain 2 (unknown origin) expressed in competent Escherichia coli BL21(DE3) cells by differential scanning fluorimetry; settings: Homo sapiens
# T1 sequence (P25440 whole entry): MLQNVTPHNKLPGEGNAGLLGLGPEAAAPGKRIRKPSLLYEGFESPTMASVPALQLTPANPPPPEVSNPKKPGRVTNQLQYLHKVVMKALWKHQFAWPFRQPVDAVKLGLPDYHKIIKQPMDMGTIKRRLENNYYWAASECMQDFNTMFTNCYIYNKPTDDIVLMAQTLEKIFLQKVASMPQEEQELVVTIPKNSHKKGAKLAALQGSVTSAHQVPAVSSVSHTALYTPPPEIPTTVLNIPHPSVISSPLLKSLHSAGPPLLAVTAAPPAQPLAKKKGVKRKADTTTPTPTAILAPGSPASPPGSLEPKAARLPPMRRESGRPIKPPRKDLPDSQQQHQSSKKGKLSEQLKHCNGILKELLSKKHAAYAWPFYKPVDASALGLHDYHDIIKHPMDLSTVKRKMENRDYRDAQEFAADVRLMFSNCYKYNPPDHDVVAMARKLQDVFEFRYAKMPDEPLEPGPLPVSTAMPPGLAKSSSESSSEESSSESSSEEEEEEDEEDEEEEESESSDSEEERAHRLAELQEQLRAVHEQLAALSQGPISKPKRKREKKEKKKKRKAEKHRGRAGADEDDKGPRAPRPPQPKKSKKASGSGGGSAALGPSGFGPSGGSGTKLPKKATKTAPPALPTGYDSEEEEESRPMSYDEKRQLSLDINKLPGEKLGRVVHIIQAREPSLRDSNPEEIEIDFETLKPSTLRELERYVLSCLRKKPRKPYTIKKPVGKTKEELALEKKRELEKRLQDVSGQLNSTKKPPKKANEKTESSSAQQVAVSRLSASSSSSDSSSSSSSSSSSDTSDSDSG
SMILES,Kd [1],Kd [2],Selectivity ratio (DH5-alpha [3]),Selectivity ratio (DH5-alpha [4]),Selectivity ratio (DH5-alpha [5]),Selectivity ratio (DH5-alpha [6])
CC(=O)NCCCCn1c2c(c3ccccc31)C(=O)NCC2,> 300 µM,8.6 µM,–,–,–,–
CC[C@@H](C(=O)OC)[C@@H]1N=C(c2ccc(Cl)cc2)c2cc(OC)ccc2-n2c(C)nnc21,–,–,< 540,< 540,< 540,< 540
